The data set can be described thus: gradient 5% acetonitrile 3 min, to 50% in 2 min, to 85% in 15 min, held 3 min, 100 µL/min. To be noted: column: Zorbax Extend-C18 2.1 x 50 mm; eluents: water / acetonitrile, 0.1% formic acid. Summed up: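 Using water and acetonitrile that each contained 0.1% formic acid, mixtures of ~100 pure standards were separated at 100 μL/min on a Zorbax Extend-C18 column (2.1 × 50 mm, 1.8 μm). The HPLC fed a quadrupole time-of-flight mass spectrometer working in positive and negative ionization mode, with dead and dwell volumes of 40 μL and 900 μL. Data were acquired over 3 months. Retention time was read from computationally picked adduct peaks after manual inspection of each.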
Turning to `CCOc1ccccc1NC(=O)NC(C)C(=O)N1CCc2ccccc21` (stereo not given), the RP-LC retention time was determined as 936 s.

The compound `O=C(NC1CCN(c2cc(-c3cccnc3)[nH]n2)CC1)C1CCCCC1` gave an RP-LC retention time of 573 s.

As to `CCOC(=O)c1ccccc1NC(=O)CSc1nnc2c3cc(-c4ccc(C)cc4)nn3ccn12`, the RP-LC retention time was 1080 s.

`CCNC(=O)C1CCCN1C(=O)Nc1ccccc1` (stereo not given): the RP-LC retention time turned out to be 619 s.

`COc1ccc(S(=O)(=O)N2CCCC(C(=O)Nc3cccc(F)c3)C2)cc1C` (stereo not given) returned an RP-LC retention time of 1040 s.

In turn, `Cc1ccc(NC(=O)Cc2csc3nc(-c4ccc(C)c(C)c4)cn23)c(C)c1` registered an RP-LC retention time of 930 s.

For `CCOc1ccc(-c2nc3ncccn3c2NCc2ccc(F)cc2)cc1`, the RP-LC retention time is 759 s.

In the case of `CCC1=C(c2ccc(C)cc2)S(=O)(=O)N=C1N1CCC(C(=O)NC(C)Cc2ccco2)CC1` (stereo not given), the RP-LC retention time turned out to be 894 s.

As to `CN(Cc1ccccc1)C(=O)Cn1c(=O)c2cnc(-c3ccc(Cl)cc3)nc2n(C)c1=O`, the RP-LC retention time was determined as 1120 s.

For `O=C(Cn1c(C(F)(F)F)nc2cc3c(cc21)OCCO3)NCc1ccccc1`, the RP-LC retention time was determined as 829 s.

As to `CCn1nccc1C(=O)Nc1cc(-c2cc3c(OC)cccc3n2CC)[nH]n1`, the RP-LC retention time was found to be 879 s.

In the case of `CCn1cc(C(=O)Nc2ccc(F)c(C)c2)c(S(=O)(=O)N2CCSCC2)n1`, the RP-LC retention time stood at 1040 s.

In turn, `Cc1ccccc1CNC(=O)C1(C)CCCN(C(=O)NCc2ccco2)C1` (stereo not given) displayed an RP-LC retention time of 809 s.

`CCCNC(=O)N1CCCC(c2nn[nH]n2)C1` (stereo not given): the RP-LC retention time was determined as 590 s.

As to `CCCNC(=O)C1CCCN(c2ccc(SCC(=O)Nc3cc(F)ccc3Cl)nn2)C1` (stereo not given), the RP-LC retention time came out at 748 s.

The compound `Cc1ccc(C)c(-c2cc3c(=O)n(Cc4nc(-c5ccc(F)cc5)no4)ncn3n2)c1` yielded an RP-LC retention time of 1210 s.

As for `CN1CCN(CCNC(=O)CN2C(=O)C3CCCCN3c3ccc(C(=O)N(C)C)cc32)CC1` (stereo not given), the RP-LC retention time came to 578 s.

As to `O=C(Nc1nnc(-c2ccco2)o1)C1c2ccccc2Oc2ccccc21`, the RP-LC retention time stood at 783 s.

As for `COc1nccnc1N1CCC(NC(=O)COc2ccc(F)cc2)C1` (stereo not given), the RP-LC retention time was 726 s.

`Cc1cc(C)n(CCNC(=O)Nc2cccs2)n1` returned an RP-LC retention time of 603 s.

Take `Cc1ccc(Cn2c(N3CCCC(C(=O)NCc4cccs4)C3)nc3ccsc3c2=O)cc1` (stereo not given): the RP-LC retention time was 952 s.

Turning to `COc1ccc(C(=S)N2CCN(c3cccc(Cl)c3)CC2)cc1`, the RP-LC retention time worked out at 1210 s.

In turn, `COc1ccc(-c2nc3cnccn3c2Nc2ccc(C(=O)NCc3ccco3)cc2)cc1` returned an RP-LC retention time of 710 s.

`O=C(c1c(F)cccc1F)N1CCc2nc(-c3ccccc3)ncc2C1` had an RP-LC retention time of 909 s.

Consider `Cc1noc(-c2ccc(NC(=O)c3cnn(-c4ccccc4)n3)cc2)n1`, for which the RP-LC retention time came out at 980 s.

In the case of `Cc1cc(C)c(S(=O)(=O)N2CCCC2c2nc(-c3ccc(F)cc3)no2)c(C)c1` (stereo not given), the RP-LC retention time is 1270 s.

The compound `Cc1cc(NCCCn2ccnc2)n2nc(C(F)(F)F)c(-c3ccccc3)c2n1` came in with an RP-LC retention time of 591 s.

In the case of `CCN1CCN(c2nc(-c3cccnc3)nc3ccccc23)CC1`, the RP-LC retention time was determined as 524 s.

`Cc1nc(-c2cccnc2)nc2c1CC(=O)N2C(C)C`: the RP-LC retention time came to 654 s.

Turning to `COc1ccc(-c2nc(C)cc(C)c2CNS(=O)(=O)c2cccs2)cc1`, the RP-LC retention time turned out to be 642 s.

With `O=C(CSc1cc(-n2cccn2)ncn1)Nc1cc(Cl)ccc1Cl`, the RP-LC retention time came to 1090 s.

Take `CCOc1ccc(S(=O)(=O)N2CCC(C(=O)NCc3csc(-c4cccs4)n3)CC2)cc1`: the RP-LC retention time turned out to be 914 s.

`Cc1cc(C)nc(NS(=O)(=O)c2ccc(Nc3nc(-c4ccc(F)c(C)c4)cs3)cc2)n1` showed an RP-LC retention time of 1000 s.

As to `CCCn1c(=O)c(C)nc2cc(-c3noc(-c4ccccc4F)n3)ccc21`, the RP-LC retention time was 1130 s.

The compound `O=[N+]([O-])c1c(NCCCO)cc(NCc2ccc3c(c2)OCO3)c2nonc12` had an RP-LC retention time of 668 s.

In the case of `CCOC(=O)c1c(C)c(CCC(=O)N2CCCCCC2)n(C)c1C`, the RP-LC retention time stood at 897 s.

In turn, `Cc1nc2cc(N3CC(C(=O)Nc4ccc(Br)c(C)c4)CC3=O)ccc2o1` (stereo not given) came in with an RP-LC retention time of 846 s.

For `Cc1ncoc1C(=O)NCC1Cn2cccc2C(=O)N1C` (stereo not given), the RP-LC retention time turned out to be 583 s.

`Cc1ccc(-c2cc3c4nnc(SCC(=O)Nc5ccccc5F)n4ccn3n2)cc1C` yielded an RP-LC retention time of 985 s.

In turn, `O=C(CSc1nc2ccccc2[nH]c1=O)Nc1ccccc1` registered an RP-LC retention time of 699 s.

`O=C(NCc1ccccc1)Nc1c(-c2ccc(F)cc2)nc2ccccn12` displayed an RP-LC retention time of 661 s.

As to `COCCN1C(=O)c2ccccc2C(C(=O)NCc2ccccc2)C12CCCCC2` (stereo not given), the RP-LC retention time came out at 856 s.

For `COc1cccc(-c2csc(Cc3nc(-c4ccc(Br)cc4)no3)n2)c1`, the RP-LC retention time is 1280 s.

`CCCNC(=O)CCc1ccc2nc(-c3ccccc3)[nH]c2c1` had an RP-LC retention time of 593 s.

`Cc1ccc(S(=O)(=O)N(C)C)cc1-c1nnc(-c2ccccc2)o1` gave an RP-LC retention time of 971 s.

On to `CCOC(=O)c1nnc2c(-c3ccccc3OC)c(C)nn2c1C`, for which the RP-LC retention time was found to be 924 s.

As to `O=C(NCc1ccc(Cl)cc1)NCC(O)Cc1ccccc1` (stereo not given), the RP-LC retention time is 721 s.

Regarding `Cc1ccc(S(=O)(=O)N(C)C)cc1-c1nnc(-c2ccc(Cl)cc2)o1`, the RP-LC retention time was 1080 s.

Compound `COC(=O)c1ccc2c(=O)n(CCc3ccccc3)c(N3CCCC3)nc2c1` came in with an RP-LC retention time of 1210 s.

`O=C(C1CCCC1)N1CC(N(Cc2ccccn2)C(=O)Nc2ccccc2)C1` displayed an RP-LC retention time of 579 s.

`Cc1cc(=O)n(CC(=O)NCCC2=CCCCC2)c(N2CCCCC2)n1` had an RP-LC retention time of 734 s.

Compound `CCOc1ncccc1CNC(=O)Cc1ccsc1` gave an RP-LC retention time of 771 s.

`Cc1nn(-c2ccc(-c3noc(C4CC4)n3)cc2)cc1C(=O)NC1CCCC1`: the RP-LC retention time was determined as 940 s.

`COc1ccc(-n2c(=O)c(C(=O)NCc3ccc(F)cc3F)c(O)c3cccnc32)cc1` returned an RP-LC retention time of 1170 s.

Compound `Cc1ccc(CNC(=O)[C@@]23CCCC[C@H]2N(C)C(=O)CC3)cc1` displayed an RP-LC retention time of 688 s.

`Cc1cc(Cl)ccc1OCc1nc(-c2cccc(-c3ccn[nH]3)c2)no1` had an RP-LC retention time of 1090 s.

For `O=C1CC(c2nc(-c3ccc(Cl)cc3)no2)CN1c1ccc2c(c1)OCCO2` (stereo not given), the RP-LC retention time worked out at 1040 s.

`COc1ccc(S(=O)(=O)C(CNC(=O)c2ccco2)c2cccs2)cc1` (stereo not given) returned an RP-LC retention time of 735 s.

The compound `Cc1ccc(S(=O)(=O)N2C(=O)CCC2C(=O)N(C)C2CCCCC2)cc1` (stereo not given) registered an RP-LC retention time of 916 s.

In the case of `O=C(NCCCO)c1ccc(CSc2nc3ccccc3[nH]2)cc1`, the RP-LC retention time is 562 s.

On to `O=C1CN(Cc2ccccc2)C(=O)C(Cc2ccccc2)N1` (stereo not given), for which the RP-LC retention time worked out at 656 s.

Compound `CN(C(=O)C(=O)Nc1ccc2nc3n(c(=O)c2c1)CCCCC3)c1ccccc1F` gave an RP-LC retention time of 746 s.

`Cc1ccc(C(=O)N2C[C@@H]3C[C@H]2C[C@@H]3NS(=O)(=O)c2ccccc2)cn1` gave an RP-LC retention time of 615 s.

For `Cc1nc2cc(-c3noc(-c4cccc(C#N)c4)n3)ccc2o1`, the RP-LC retention time worked out at 977 s.

In turn, `COCCCNC(=O)C1c2cc(OC)c(OC)cc2C(=O)N(C)C1c1cccs1` (stereo not given) showed an RP-LC retention time of 676 s.

For the compound `CCNc1nc(C)cc(N2CCN(S(=O)(=O)c3cc(C)c(C)cc3C)CC2)n1`, the RP-LC retention time came out at 774 s.

With `Cc1nc(-c2csc(S(=O)(=O)N3CCC(C(=O)N4CCN(C)CC4)CC3)c2)no1`, the RP-LC retention time stood at 616 s.

Regarding `Cc1[nH]c(C(=O)N2CCC(CC(=O)NCCCN3CCN(c4ccc(F)cc4)CC3)CC2)c(C)c1C`, the RP-LC retention time stood at 675 s.

Compound `CCOC(=O)C1C(=O)NC(SC)=C(C#N)C1c1ccccc1[N+](=O)[O-]` (stereo not given) showed an RP-LC retention time of 778 s.

Consider `O=C(Cc1ccc(Cl)cc1)N1CC(n2cnnc2C2CC2)C1`, for which the RP-LC retention time is 649 s.

As for `Cc1oc2ncnc(N3CCCC(C(=O)NCc4cccc(Cl)c4)C3)c2c1C` (stereo not given), the RP-LC retention time came to 920 s.

`CC(C)Cc1csc(-c2csc(S(=O)(=O)NCc3ccc(F)cc3F)c2)n1` returned an RP-LC retention time of 1160 s.

Take `C=C1CC(COc2cc(=O)oc3ccccc23)(c2ccccc2)OC1=O` (stereo not given): the RP-LC retention time worked out at 885 s.

For `O=C(NCC1CCN(S(=O)(=O)C2CC2)CC1)c1cnc2ccccc2n1`, the RP-LC retention time turned out to be 704 s.

Regarding `O=C(NCc1ccc(F)cc1F)C1CCCN(c2nc3ccsc3c(=O)n2Cc2ccccc2)C1` (stereo not given), the RP-LC retention time was 938 s.

In the case of `O=C(Cn1nc(N2CCCC2)c2ccccc2c1=O)Nc1cccc(Cl)c1`, the RP-LC retention time stood at 989 s.

As for `Cc1cc(C)cc(NC(=O)c2cc3sccc3n2C)c1`, the RP-LC retention time was 1090 s.

With `Cc1ccc(CN(C(=O)COc2ccc(Cl)c(C)c2)C2CCS(=O)(=O)C2)o1` (stereo not given), the RP-LC retention time was found to be 979 s.

Compound `CCCNC(=O)CCc1nc2ccccc2n(CC(=O)Nc2ccc(OCC)cc2)c1=O` gave an RP-LC retention time of 788 s.

Turning to `CC(=O)c1cccc(NC(=O)N2CCN(c3cnn4c(C)nnc4c3)CC2)c1`, the RP-LC retention time was found to be 600 s.

The values are drawn from the METLIN SMRT retention time set (Domingo-Almenara et al. 2019).
